The structures appear in SMILES notation. Several values for one entry are separate records, joined by “and”; a condition that tells them apart may be missing. Identical values can stand only once.

Drawing on patent US20220118036A1, “USE OF MORCHELLA ACTIVE SUBSTANCE” (GRAPE KING BIO LTD., priority 2020, published 2022), this text covers myotube diameter for one compound.

This experiment relates to mouse skeletal muscle cells C2C12. The experiment is described as follows: Dexamethasone-induced muscle atrophy of differentiated C2C12 myotubes (myotube width, H&E staining). The class given is cell-based. Conditions: 1 μM Dexamethasone alone, 24 hours, mean±SD, n = 60, control 30.39 ± 4.52. The protocol: Currently, there have been experiments using Dexamethasone to induce muscle atrophy in mouse skeletal muscle cell C2C12. […] This paper uses a synthetic glucocorticoid-Dexamethasone to induce differentiated C2C12 atrophy as a model of muscle atrophy for sarcopenia study, in which the severity of muscle atrophy is measured according to the observation of morphology and diameter of the myotubes. According to such a method, in this experiment, the differentiated mouse skeletal muscle cell C2C12 is stained with H&E (hematoxylin and eosin) to assess the effect of the Morchella mycelium active substance in muscle atrophy. The experimental method is as follows:
(1) After the mouse skeletal muscle cells C2C12 was collected and the cell suspension concentration was adjusted, the cells were plated in a 6-well plate at a cell density of 1×10^5-2×10^5 with the cell growth medium (DMEM, 10% Fetal Bovine Serum).
(2) The 6-well plate of (1) was placed in a 5% CO2 incubator at 37° C. for two days and then observed under a microscope. […]
(5) Each test was repeated 3 times, and the numerical value was expressed as mean±SD (standard deviation). The statistical method used paired t-test to analyze the percentages of each item, and the significant difference was determined when the p-value was less than 0.05.

As to `C[C@@H]1C[C@H]2[C@@H]3CCC4=CC(=O)C=C[C@]4(C)[C@@]3(F)[C@@H](O)C[C@]2(C)[C@@]1(O)C(=O)CO` [Dexamethasone], the myotube diameter was 19.98 μm and 19.98 ± 6.42 μm.
